Experimental data: US5633144A, “Assay pad and method for determination of the presence of total coliforms” (priority 1994, dated 1997)
Like-named read-outs stand apart in the source and are kept apart here.

Key:
[1] = Solubility and storage stability of CPRG; assay type: physicochemical; conditions: 50 mM K-phosphate buffer containing 1 mM MgCl2, pH 7.5, 4° C.
Description: CPRG was dissolved in 50 mM K-phosphate buffer containing 1 mM MgCl2. […] When the beta-galactosidase catalzyed hydrolysis of CPRG occurs, the resulting product on the MetPAD™ is purple and, thus, is easily detected visibly.

[2] = cited from earlier work
[3] = test system: beta-galactosidase of E. coli EW1b; assay type: biochemical; conditions: for Color intensity, trehalose medium: freeze-dried in trehalose medium (22.4% w/v); for Color intensity, distilled water: freeze-dried in distilled water
[4] = molecular target: T1, beta-galactosidase (Escherichia coli, UniProt P00722); assay type: biochemical, E. coli EW1b
T1 construct: one convenient source of beta-galactosidase is bacteria which produce this enzyme in useful amounts; endogenous in cells; host or cells: E. coli EW1b (Coli Genetic Stock Culture, Yale University), IPTG-induced, freeze-dried in trehalose, rehydrated

[5] = molecular target: T1, beta-galactosidase; assay type: biochemical, E. coli EW1b; remark: listed apart in the source
[6] = molecular target: T1, beta-galactosidase; assay type: biochemical, E. coli EW1b; parameters: key: +++++: maximum color intensity; -: complete enzyme inactivation
[7] = test system: E. coli EW1b cells; assay: Enhancement of beta-galactosidase production by inducer; assay type: cell-based; conditions: E. coli EW1b cells treated with inducer
Description: As described above, one convenient source of beta-galactosidase is bacteria which produce this enzyme in useful amounts. Advantageously, the enzyme produced by the bacteria is readily accessible to the heavy metal and the substrate. […] Among the bacteria investigated by the applicants are E. coli C3000, E. coli EW1b, and a mixed culture of beta-galactosidase producers isolated from wastewater. E. coli C3000 is available from the American Type Culture Collection (ATCC), 12301 Parklawn Drive, Rockville, Md. 20852 USA. The culture has been assigned the accession number ATCC 15597 by the repository. E. coli EW1b is available from the Coli Genetic Stock Culture, Yale University, New Haven, Conn. The mixed culture was obtained following inoculation of LB-lactose-SDS broth with activated sludge effluent. Although these bacteria would perform well in the assay of the subject invention, E. coli C3000 was not as sensitive to heavy metal toxicity as E. coli EW1b or the mixture of beta-galactosidase producing bacteria. Moreover, due to potential problems in maintaining a mixed culture of bacteria, E. coli EW1b is the preferred microbe. […]
3. […] The bacterial suspension is then diluted with 20 ml of fresh medium, amended with 1 ml of 0.2% (w/v) solution of isopropyl-beta-thiogalactoside (IPTG) and then allowed to grow to absorbance A550 =0.4-0.5.

[8] = Stability of beta-galactosidase in freeze-dried cells; assay type: physicochemical, E. coli EW1b
Description: A. Preparation of freeze-dried cells
1. Stock cultures of E. coli EW1b are stored in 40% glycerol solution at -14° C. to -20° C.
2. Fifty μL of the stock culture are inoculated into 5 ml of LB-lactose medium (Bacto-tryptone: 1%; yeast extract: 0.5%; NaCl: 1.0%; K2 HPO4 : 0.15%; Lactose: 1%).
3. Cells are grown overnight at 35° C. The bacterial suspension is then diluted with 20 ml of fresh medium, amended with 1 ml of 0.2% (w/v) solution of isopropyl-beta-thiogalactoside (IPTG) and then allowed to grow to absorbance A550 =0.4-0.5.
4. Cells are centrifuged at 8000 RPM for 10 minutes.
5. The pellet is resuspended in distilled water.
6. The suspension is centrifuged for 10 minutes at 8000 RPM.
7. The suspension is resuspended in 2% trehalose to obtain an absorbance of A550 =0.2-0.25 (if using the MUGA pads for enzyme assay, an absorbance of A550 =0.10 is sufficient).
8. This suspension is dispensed in 3 ml aliquots in serum bottles.
9. The cells are frozen overnight at -40° C.
10. The frozen cells are freeze-dried for 24 hours and stored at subzero or at refrigerator temperature until used. […] Moreover, the enzyme was stable for at least 18 hours at 35° C.

[9] = 400 ppm, maximum concentration tested at which no inhibition was observed

T1 sequence (P00722 2-1024): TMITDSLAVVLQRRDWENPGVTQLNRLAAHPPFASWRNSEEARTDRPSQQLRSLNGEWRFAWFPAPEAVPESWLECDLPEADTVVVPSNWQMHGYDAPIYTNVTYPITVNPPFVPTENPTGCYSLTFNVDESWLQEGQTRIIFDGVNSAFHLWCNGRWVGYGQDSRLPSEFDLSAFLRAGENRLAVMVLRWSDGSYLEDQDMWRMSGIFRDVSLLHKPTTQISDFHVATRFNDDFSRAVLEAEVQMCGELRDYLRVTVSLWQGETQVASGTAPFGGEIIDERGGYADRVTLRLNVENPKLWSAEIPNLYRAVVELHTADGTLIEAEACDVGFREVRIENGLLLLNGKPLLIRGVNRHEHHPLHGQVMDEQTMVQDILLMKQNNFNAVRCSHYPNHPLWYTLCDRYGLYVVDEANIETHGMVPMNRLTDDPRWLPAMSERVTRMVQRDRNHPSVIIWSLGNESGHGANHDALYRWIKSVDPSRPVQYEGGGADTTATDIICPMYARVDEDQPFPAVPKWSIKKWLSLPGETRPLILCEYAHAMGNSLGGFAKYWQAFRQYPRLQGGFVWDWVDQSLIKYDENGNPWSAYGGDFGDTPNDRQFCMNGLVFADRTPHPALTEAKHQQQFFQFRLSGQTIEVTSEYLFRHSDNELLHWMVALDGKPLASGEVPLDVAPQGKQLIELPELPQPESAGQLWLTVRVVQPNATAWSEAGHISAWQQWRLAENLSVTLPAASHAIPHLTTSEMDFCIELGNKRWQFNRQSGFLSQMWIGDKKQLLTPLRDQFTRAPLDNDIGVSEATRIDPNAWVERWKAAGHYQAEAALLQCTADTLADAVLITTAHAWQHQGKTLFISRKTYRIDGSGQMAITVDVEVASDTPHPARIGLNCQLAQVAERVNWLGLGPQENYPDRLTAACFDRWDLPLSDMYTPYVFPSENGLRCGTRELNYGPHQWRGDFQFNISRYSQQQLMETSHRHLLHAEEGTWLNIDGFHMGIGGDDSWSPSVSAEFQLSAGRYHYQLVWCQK

For `O=S1(=O)OC(c2ccc(O)c(Cl)c2)(c2ccc(O[C@@H]3O[C@H](CO)[C@H](O)[C@H](O)[C@H]3O)c(Cl)c2)c2ccccc21` (stereo partly drawn) [CPRG, chlorophenol red-beta-D-galactopyranoside], the “stability of CPRG solution” value [1] is listed as “stable at 4 °C for one week”, the solubility [2] is listed as “more than 50 mmol/L” and the stability ([2]; must be protected from light) is listed as “stable at -20 °C”.

For `O=S(=O)([O-])[O-].[Cd+2]` [Cadmium (CdSO4), Cadmium], the “Color intensity, trehalose medium” value ([3]; 1.0 ppm) was “-”, the “Color intensity, trehalose medium” value ([3]; 1.5 ppm) was “-” and the “MIC (Minimum Inhibitory Concentration)” value ([4]; MetPAD) was 0.2 mg/L. For the same compound, the “Total inactivation (toxicant concentration which causes 100% inhibition of enzyme activity)” value ([4]; MetPAD) was 1.0 mg/L, the “heavy metal toxicity, response of MetPAD (in words)” value ([4]; MetPAD, 7 heavy metals) was “most toxic among the metals tested” and the “Minimum inhibitory concentration (MIC), CPRG pads” value ([5]; CPRG pads) was 0.30 mg/L. The “Minimum inhibitory concentration (MIC), fluorescent pads” value ([5]; Fluorescent (MUGA) pads) was 0.30 mg/L.

With `ClC(Cl)Cl` [Chloroform] the Color intensity ([6]; 3250 ppm) was “+++++”.

With `O.O.O.O.O.O=S(=O)([O-])[O-].[Cu+2]` [Copper (CuSO4.5H2 O), Copper] the “Color intensity, distilled water” value ([3]; 0.5 ppm) was “+++++”, the “Color intensity, distilled water” value ([3]; 0.8 ppm) was “+++++” and the “Color intensity, distilled water” value ([3]; 1.0 ppm) was “+++++”. For the same compound, the “Color intensity, trehalose medium” value ([3]; 1.0 ppm) was “-”, the “Color intensity, distilled water” value ([3]; 1.5 ppm) was “+++++” and the “Color intensity, trehalose medium” value ([3]; 1.5 ppm) was “-”. For the same compound, the “MIC (Minimum Inhibitory Concentration)” value ([4]; MetPAD) was 0.5 mg/L, the “Total inactivation (toxicant concentration which causes 100% inhibition of enzyme activity)” value ([4]; MetPAD) was 1.0 mg/L and the “Minimum inhibitory concentration (MIC), CPRG pads” value ([5]; CPRG pads) was 0.50 mg/L. For the same compound, the “Minimum inhibitory concentration (MIC), fluorescent pads” value ([5]; Fluorescent (MUGA) pads) was 0.25 mg/L.

In the case of `C=O` [Formaldehyde], the Color intensity ([6]; 925 ppm, buffered to pH = 7.0 with K-phosphate buffer) is reported as “+++++”.

With `CC(C)S[C@@H]1O[C@H](CO)[C@H](O)[C@H](O)[C@H]1O` [IPTG, isopropyl-beta-thiogalactoside] the beta-galactosidase production [7] was “beta-galactosidase production could be enhanced”.

In the case of `O=[N+]([O-])[O-].O=[N+]([O-])[O-].[Pb+2]` [Lead (Pb(NO3)2), Lead], the “Color intensity, trehalose medium” value ([3]; 3.0 ppm) is reported as “+++++”, the “Color intensity, trehalose medium” value ([3]; 15.0 ppm) is reported as “-” and the “Color intensity, trehalose medium” value ([3]; 20.0 ppm) is reported as “-”. For the same compound, the “MIC (Minimum Inhibitory Concentration)” value ([4]; MetPAD) was 5.0 mg/L, the “Total inactivation (toxicant concentration which causes 100% inhibition of enzyme activity)” value ([4]; MetPAD) was 15.0 mg/L and the “Minimum inhibitory concentration (MIC), CPRG pads” value ([5]; CPRG pads) was 5.00 mg/L. For the same compound, the “Minimum inhibitory concentration (MIC), fluorescent pads” value ([5]; Fluorescent (MUGA) pads) was 2.50 mg/L.

With `Cl[C@H]1[C@H](Cl)[C@@H](Cl)[C@@H](Cl)[C@H](Cl)[C@H]1Cl` [Lindane] the Color intensity ([6]; 500 ppm) was “+++++”.

With `O.O.O.O.O.O.O=S(=O)([O-])[O-].[Ni+2]` [Ni (NiSO4.6H2 O), Nickel] the “MIC (Minimum Inhibitory Concentration)” value ([4]; MetPAD) was 8.0 mg/L, the “Total inactivation (toxicant concentration which causes 100% inhibition of enzyme activity)” value ([4]; MetPAD) was 20.0 mg/L and the “Minimum inhibitory concentration (MIC), CPRG pads” value ([5]; CPRG pads) was 8.00 mg/L. For the same compound, the “Minimum inhibitory concentration (MIC), fluorescent pads” value ([5]; Fluorescent (MUGA) pads) was 5.00 mg/L.

For `Oc1c(Cl)c(Cl)c(Cl)c(Cl)c1Cl` [Pentachlorophenol], the Color intensity [6, 9] was “+++++”.

With `Oc1ccccc1` [Phenol] the Color intensity ([6]; 3000 ppm) was “+++++”.

With `CCCCCCCCCCCCOS(=O)(=O)[O-].[Na+]` [Sodium dodecyl sulfate] the Color intensity ([6]; 3000 ppm) was “+++++”.

In the case of `Cn1cc(-c2ccccc2)c(=O)c(-c2cccc(C(F)(F)F)c2)c1` [Sonar (Fluoridone), Fluoridone], the Color intensity [6, 9] is reported as “+++++”.

With `O=S(=O)([O-])[O-].[Zn+2]` [Zinc (ZnSO4), Zinc] the “Color intensity, distilled water” value ([3]; 0.5 ppm) was “+++++”, the “Color intensity, trehalose medium” value ([3]; 0.5 ppm) was “+++++” and the “Color intensity, distilled water” value ([3]; 1.0 ppm) was “+++++”. For the same compound, the “Color intensity, trehalose medium” value ([3]; 3.0 ppm) was “-”, the “Color intensity, trehalose medium” value ([3]; 5.0 ppm) was “-” and the “Color intensity, trehalose medium” value ([3]; 7.5 ppm) was “-”. The “Color intensity, distilled water” value ([3]; 10.0 ppm) was “-”, the “Color intensity, trehalose medium” value ([3]; 10.0 ppm) was “-” and the “MIC (Minimum Inhibitory Concentration)” value ([4]; MetPAD) was 0.5 to 1 mg/L. For the same compound, the “Total inactivation (toxicant concentration which causes 100% inhibition of enzyme activity)” value ([4]; MetPAD) was 3.0 mg/L, the “Minimum inhibitory concentration (MIC), CPRG pads” value ([5]; CPRG pads) was 0.5 to 1.00 mg/L and the “Minimum inhibitory concentration (MIC), fluorescent pads” value ([5]; Fluorescent (MUGA) pads) was 0.50 mg/L.

For `O=[N+]([O-])c1ccc(O)cc1` [p-nitrophenol], the Color intensity ([6]; 110 ppm) was “+++++”.

For Chromium [Cr (K2 Cr2 O7)], the “MIC (Minimum Inhibitory Concentration)” value [4] was 25.0 mg/L, the “Total inactivation (toxicant concentration which causes 100% inhibition of enzyme activity)” value [4] was 50.0 mg/L and the “Minimum inhibitory concentration (MIC), CPRG pads” value [5] was 25.00 mg/L. For the same compound, the “Minimum inhibitory concentration (MIC), fluorescent pads” value [5] was 25.00 mg/L.

For Mercury [Mercury (HgSO4)], the “Color intensity, distilled water” value ([3]; 0.5 ppm) was “+++++”, the “Color intensity, distilled water” value ([3]; 1.0 ppm) was “+++++” and the “Color intensity, trehalose medium” value ([3]; 1.0 ppm) was “-”. The “Color intensity, distilled water” value ([3]; 1.5 ppm) was “+++++”, the “Color intensity, trehalose medium” value ([3]; 1.5 ppm) was “-” and the “Color intensity, trehalose medium” value ([3]; 2.0 ppm) was “-”. The “MIC (Minimum Inhibitory Concentration)” value ([4]; MetPAD) was 0.5 mg/L, the “Total inactivation (toxicant concentration which causes 100% inhibition of enzyme activity)” value ([4]; MetPAD) was 1.0 mg/L and the “Minimum inhibitory concentration (MIC), CPRG pads” value ([5]; CPRG pads) was 0.25 mg/L. The “Minimum inhibitory concentration (MIC), fluorescent pads” value ([5]; Fluorescent (MUGA) pads) was 0.25 mg/L.

For “beta-galactosidase: enzyme of freeze-dried E. coli EW1b cells”, the “stability of beta-galactosidase activity of freeze-dried cells” value ([8]; 4° C.) was “stable for several weeks” and the “stability of the enzyme” value ([8]; 35° C.) was “at least 18 hours”.
